From US8278343B2, “Pyrrolidines” (Pfizer Inc., priority 2008, dated 2012)

Target: T1, recombinant human EP-2 receptor (Homo sapiens, UniProt P43116)
T1 construct: stably transfected with full length cDNA encoding human Prostaglandin E2; expressed in transfected cells
Assay: In vitro antagonist potency against recombinant human prostaglandin E2 (EP-2) receptor in CHO cells (cAMP, Protocol 1)
Assay type: cell-based
Settings: CHO cells expressing recombinant human EP-2 receptor, stimulated with 5 nM PGE2; cAMP readout; Ki by Cheng-Prusoff equation; read-out: EP2 Ki
Description: 1.0 Measurement of In Vitro Antagonist Potency (IC50) of Compounds Against Recombinant Human Prostaglandin E2 Receptor in CHO Cells
The prostaglandin E2 (EP-2) receptor is Gs coupled and agonism of the receptor by PGE2 results in activation of intracellular adenylate cyclase enzymes that synthesise the second messenger signalling molecule, adenosine 3′,5′-cyclic monophosphate (cAMP). CHO cells expressing the recombinant human EP-2 receptor are stimulated with PGE2 (5 nM) equivalent to approximately […] values to give the maximal cAMP signal. Decreases in cAMP levels following treatment of stimulated recombinant EP-2 cells with potential antagonist compounds were measured and potency (IC50) calculated as follows.
A Chinese hamster ovary (CHO) cell line stably transfected with full length cDNA encoding human Prostaglandin E2 was established using standard molecular biology methods. Test compounds were dissolved in dimethyl sulphoxide (DMSO) at 4 mM. 11 point half log unit increment dilution series of test compound were prepared in DMSO then diluted 1 in 40 in a buffer comprised of phosphate buffered saline (PBS) and 0.05% pluronic F-127 surfactant. Freshly cultured cells at 80-90% confluence were harvested and re-suspended in 90% growth media/10% DMSO. The cells were frozen using a planar freezer and stored in frozen aliquots in cryovials in liquid nitrogen until the day of the experiment. A vial of cells was defrosted in a 37° C. water bath for 2 min, then transferred to 10 ml of Dulbecco's Modified Eagle's Medium (DMEM). The cells were then centrifuged for 5 min at 1000 g and the pellet re-suspended at 1,000,000 cells/ml in DMEM. 5,000 cells (5 ul) were added to 5 ul of the compound dilution series in a 384 well assay plate and pre-incubated for 30 min at 37° C. 5 ul of agonist (15 nM PGE2 in PBS to give 5 nM FAC) was added and plates further incubated for 90 min at 37° C. The relative cAMP concentration in each well was then measured using a β-galactosidase enzyme fragment complementation method purchased in kit form as the Discoverx cAMP II kit from GE Healthcare, UK. […] Sigmoidal curves were fitted to plots of log10 inhibitor concentration vs percent effect. IC50 estimates were determined as the concentration of test compound giving an effect half way between the bottom and top asymptotes of the sigmoidal dose response curve. Each experiment included an IC50 determination for the literature compound as a standard to track assay consistency and allow fair comparison between values obtained in different experiments. The EC50 of PGE2 is used in combination with the ligand concentration in the assay to determine Ki values for antagonist dose responses using the Cheng-Prusoff equation. Consequently an agonist dose response curve is carried out for each experiment using the same incubation as the antagonist plate.

T1 sequence (P43116 whole entry): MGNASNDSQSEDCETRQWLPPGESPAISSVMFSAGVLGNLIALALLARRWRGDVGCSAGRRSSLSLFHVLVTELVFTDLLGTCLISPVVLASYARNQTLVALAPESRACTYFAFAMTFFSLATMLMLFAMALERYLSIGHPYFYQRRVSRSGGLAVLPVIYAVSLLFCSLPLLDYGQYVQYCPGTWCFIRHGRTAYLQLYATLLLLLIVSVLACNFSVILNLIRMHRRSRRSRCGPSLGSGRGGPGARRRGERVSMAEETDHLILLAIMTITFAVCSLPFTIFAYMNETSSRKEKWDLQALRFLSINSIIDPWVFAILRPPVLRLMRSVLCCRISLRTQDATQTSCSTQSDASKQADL

**Q.** How did the Ki turn out when `COc1ccccc1C(=O)N1CCC(COc2ccc(-c3ccc(C#N)cc3)nc2)(C(=O)O)C1` (single isomer, unassigned) [Example 62] was run?
**A.** 868 nM

**Q.** With `COc1ccccc1C(=O)N1CCC(COc2ccc(-c3ncc(F)cn3)cc2)(C(=O)O)C1` (single isomer, unassigned) [Example 63] as the compound, how does the Ki read?
**A.** 174 nM

**Q.** `COc1ccccc1C(=O)N1CCC(COc2ccc(-c3ncc(F)cn3)cc2)(C(=O)O)C1` (single isomer, unassigned) [Example 64] was tested. Which Ki did it give?
**A.** 621 nM

**Q.** Which Ki does the source give for `COc1ccccc1C(=O)N1CCC(COc2ccc(-c3ncc(C#N)cn3)cc2)(C(=O)O)C1` (single isomer, unassigned) [Example 65] here?
**A.** 175 nM

**Q.** `COc1ccccc1C(=O)N1CCC(COc2ccc(-c3ccc(C#N)cc3)cc2)(C(=O)O)C1` (single isomer, unassigned) [Example 66] was tested. Which Ki did it give?
**A.** 3.3 nM

**Q.** With `COc1ccccc1C(=O)N1CCC(COc2ccc(-c3ccc(C#N)cc3)cc2)(C(=O)O)C1` (single isomer, unassigned) [Example 67] as the compound, how does the Ki read?
**A.** 85.7 nM

**Q.** For `COc1ccccc1C(=O)N1CCC(COc2ccc(-c3ccc(F)cc3)cc2)(C(=O)O)C1` (single isomer, unassigned) [Example 68], which Ki is on record?
**A.** 14.6 nM

**Q.** With `COc1ccccc1C(=O)N1CCC(COc2ccc(-c3ccc(F)cc3)cc2)(C(=O)O)C1` (single isomer, unassigned) [Example 69] as the compound, how does the Ki read?
**A.** 309 nM

**Q.** Which Ki does the source give for `COc1ccccc1C(=O)N1CCC(COc2ccc(-c3ccc(Cl)cc3)nc2)(C(=O)O)C1` (single isomer, unassigned) [Example 70] here?
**A.** 22.7 nM

**Q.** Which Ki does the source give for `COc1ccccc1C(=O)N1CCC(COc2ccc(-c3ccc(Cl)cc3)nc2)(C(=O)O)C1` (single isomer, unassigned) [Example 71] here?
**A.** 23.9 nM

**Q.** How did the Ki turn out when `COc1ccccc1C(=O)N1CCC(COc2ccc(-c3ncc(Cl)cn3)cc2)(C(=O)O)C1` (single isomer, unassigned) [Example 72] was run?
**A.** 25.5 nM

**Q.** For `COc1ccccc1C(=O)N1CCC(COc2ccc(-c3ncc(Cl)cn3)cc2)(C(=O)O)C1` (single isomer, unassigned) [Example 73], which Ki is on record?
**A.** 459 nM

**Q.** How did the Ki turn out when `COc1ccccc1C(=O)N1CCC(COc2cnc(-c3ccc(Cl)cc3)nc2)(C(=O)O)C1` (single isomer, unassigned) [Example 74] was run?
**A.** 35.6 nM

**Q.** With `COc1ccccc1C(=O)N1CCC(COc2cnc(-c3ccc(Cl)cc3)nc2)(C(=O)O)C1` (single isomer, unassigned) [Example 75] as the compound, how does the Ki read?
**A.** 504 nM

**Q.** How did the Ki turn out when `COc1ccccc1C(=O)N1CCC(COc2ccc(-c3ccc(F)cc3)nc2)(C(=O)O)C1` (single isomer, unassigned) [Example 76] was run?
**A.** 158 nM

**Q.** Which Ki does the source give for `O=C(C1CCC1)N1CCC(COc2ccc(-c3ccc(F)cc3)cc2)(C(=O)O)C1` (single isomer, unassigned) [Example 79] here?
**A.** 21.3 nM

**Q.** How did the Ki turn out when `O=C(C1CCC1)N1CCC(COc2ccc(-c3ccc(F)cc3)cc2)(C(=O)O)C1` (single isomer, unassigned) [Example 80] was run?
**A.** 344 nM

**Q.** With `O=C(C1CCCC1)N1CCC(COc2ccc(-c3ccc(F)cc3)cc2)(C(=O)O)C1` (single isomer, unassigned) [Example 81] as the compound, how does the Ki read?
**A.** 55.5 nM

**Q.** Which Ki does the source give for `O=C(C1CCCC1)N1CCC(COc2ccc(-c3ccc(F)cc3)cc2)(C(=O)O)C1` (single isomer, unassigned) [Example 82] here?
**A.** 524 nM

**Q.** Which Ki does the source give for `O=C(C1CC1)N1CCC(COc2ccc(-c3ccc(F)cc3)cc2)(C(=O)O)C1` (single isomer, unassigned) [Example 83] here?
**A.** 119 nM

**Q.** With `O=C(C1CC1)N1CCC(COc2ccc(-c3ccc(F)cc3)cc2)(C(=O)O)C1` (single isomer, unassigned) [Example 84] as the compound, how does the Ki read?
**A.** 438 nM

**Q.** `Cc1ccc(OC(=O)N2CCC(COc3ccc(-c4ccc(F)cc4)cc3)(C(=O)O)C2)cc1` (single isomer, unassigned) [Example 86] was tested. Which Ki did it give?
**A.** 5.36 nM

**Q.** With `Cc1ccc(OC(=O)N2CCC(COc3ccc(-c4ccc(F)cc4)cc3)(C(=O)O)C2)cc1` (single isomer, unassigned) [Example 87] as the compound, how does the Ki read?
**A.** 225 nM

**Q.** `O=C(Oc1ccc(Cl)cc1)N1CCC(COc2ccc(-c3ccc(F)cc3)cc2)(C(=O)O)C1` (single isomer, unassigned) [Example 88] was tested. Which Ki did it give?
**A.** 14.9 nM

**Q.** Which Ki does the source give for `O=C(Oc1ccc(Cl)cc1)N1CCC(COc2ccc(-c3ccc(F)cc3)cc2)(C(=O)O)C1` (single isomer, unassigned) [Example 89] here?
**A.** 252 nM

**Q.** Which Ki does the source give for `O=C(Oc1ccc(F)cc1)N1CCC(COc2ccc(-c3ccc(F)cc3)cc2)(C(=O)O)C1` (single isomer, unassigned) [Example 90] here?
**A.** 4.16 nM

**Q.** `O=C(Oc1ccc(F)cc1)N1CCC(COc2ccc(-c3ccc(F)cc3)cc2)(C(=O)O)C1` (single isomer, unassigned) [Example 91] was tested. Which Ki did it give?
**A.** 37.4 nM

**Q.** With `COc1ccc(OC(=O)N2CCC(COc3ccc(-c4ccc(F)cc4)cc3)(C(=O)O)C2)cc1` (single isomer, unassigned) [Example 92] as the compound, how does the Ki read?
**A.** 7.81 nM

**Q.** For `COc1ccc(OC(=O)N2CCC(COc3ccc(-c4ccc(F)cc4)cc3)(C(=O)O)C2)cc1` (single isomer, unassigned) [Example 93], which Ki is on record?
**A.** 165 nM

**Q.** With `COc1ccccc1OC(=O)N1CCC(COc2ccc(-c3ccc(F)cc3)cc2)(C(=O)O)C1` (single isomer, unassigned) [Example 94] as the compound, how does the Ki read?
**A.** 431 nM

**Q.** Which Ki does the source give for `COc1ccc(NC(=O)N2CCC(COc3ccc(-c4ccc(F)cc4)cc3)(C(=O)O)C2)cc1` (single isomer, unassigned) [Example 95] here?
**A.** 1.03 nM

**Q.** With `COc1ccc(NC(=O)N2CCC(COc3ccc(-c4ccc(F)cc4)cc3)(C(=O)O)C2)cc1` (single isomer, unassigned) [Example 96] as the compound, how does the Ki read?
**A.** 178 nM

**Q.** With `COc1cccc(NC(=O)N2CCC(COc3ccc(-c4ccc(F)cc4)cc3)(C(=O)O)C2)c1` (single isomer, unassigned) [Example 97] as the compound, how does the Ki read?
**A.** 1.89 nM

**Q.** How did the Ki turn out when `COc1cccc(NC(=O)N2CCC(COc3ccc(-c4ccc(F)cc4)cc3)(C(=O)O)C2)c1` (single isomer, unassigned) [Example 98] was run?
**A.** 260 nM

**Q.** `O=C(Nc1ccccc1Cl)N1CCC(COc2ccc(-c3ccc(F)cc3)cc2)(C(=O)O)C1` (single isomer, unassigned) [Example 99] was tested. Which Ki did it give?
**A.** 1.99 nM

**Q.** With `O=C(Nc1ccccc1Cl)N1CCC(COc2ccc(-c3ccc(F)cc3)cc2)(C(=O)O)C1` (single isomer, unassigned) [Example 100] as the compound, how does the Ki read?
**A.** 518 nM

**Q.** For `O=C(Nc1ccc(Cl)cc1)N1CCC(COc2ccc(-c3ccc(F)cc3)cc2)(C(=O)O)C1` (single isomer, unassigned) [Example 101], which Ki is on record?
**A.** 3.59 nM

**Q.** Which Ki does the source give for `O=C(Nc1ccc(Cl)cc1)N1CCC(COc2ccc(-c3ccc(F)cc3)cc2)(C(=O)O)C1` (single isomer, unassigned) [Example 102] here?
**A.** 160 nM

**Q.** For `O=C(Nc1ccccc1F)N1CCC(COc2ccc(-c3ccc(F)cc3)cc2)(C(=O)O)C1` (single isomer, unassigned) [Example 103], which Ki is on record?
**A.** 3.77 nM

**Q.** Which Ki does the source give for `O=C(Nc1ccccc1F)N1CCC(COc2ccc(-c3ccc(F)cc3)cc2)(C(=O)O)C1` (single isomer, unassigned) [Example 104] here?
**A.** 392 nM

**Q.** `COc1ccccc1C(=O)N1CCC(COc2ccc(-c3ccc(C#N)cn3)cc2)(C(=O)O)C1` (centres unmarked) [Example 3, 3 ((4-(5-cyanopyridin-2-yl)phenoxy)methyl)-1-(2-methoxybenzoyl)pyrrolidine-3-carboxylic acid] was tested. Which Ki did it give?
**A.** 24.4 nM
